Assay results: patent US20240382730A1, “FLEXIBLE MICRONEEDLE ARRAY PATCH FOR CHRONIC WOUND OXYGENATION AND BIOFILM ERADICATION” (Purdue Research Foundation, priority 2021, published 2024)

Test system: S. aureus mature biofilm
Test: Colony biofilm model, mature biofilm
Format: cell-based, Staphylococcus aureus
Conditions: FIG. 9a; powder amount estimated equal to that in the CPO-loaded MN sample, 24 h
Description: Biofilm Antibacterial Studies. Antibiofilm activity of MNs loaded with CPO was evaluated by the colony biofilm model. Overnight cultures of S. aureus and P. aeruginosa were diluted to 2×10^5 CFU mL−1 with TSB. Next, 50 μL of the diluted bacterial suspension was inoculated onto sterile 10 mm nitrocellulose disks placed on the surface of tryptic soy agar (TSA) plates. To allow biofilm development on the nitrocellulose membrane, the plates were incubated at 37° C. for 72 h. The developed biofilm was then nourished by aseptically transferring to new TSA plates every day for 4 days.31,38 After maturation of the biofilms, 12 mm disks of MNs loaded with CPO and control samples including PET films, CPO powder, and 12 mm disks of MNs without CPO were placed onto the biofilm using sterile forceps. The quantity of CPO powder in the control was estimated to be the amount of CPO powder present in the sample of MNs loaded with CPO. For all experiments, biofilms without any treatments were used as the negative control. The plates were further incubated at 37° C. for 24 h immediately after each treatment. […] The plates were further incubated at 37° C. for 24 h and viable CFU mL−1 were calculated.

[Ca+2].[O-][O-] [CPO, calcium peroxide]
effect on number of colonies in biofilm: did not affect the number of colonies
